Entries after “also recorded” stand apart in the source; their conditions may differ. Values belong to the compound of their own block, whether it stands above or below them.
Columns and labels:
rat carotid artery = experiment: Intravascular PDT treatment of rat carotid artery, histology (H&E) and clinical observation; assay type: in vivo; settings: for Acellularity in the medial wall / PDT effect / damage in surrounding tissue: balloon blood exclusion; for Adverse symptoms in animals / PDT-induced damage in surrounding tissue (histology) / Acellularity within the media (H&E): blue light approximately 458 nm
Source text: The central lumen of this catheter was designed to allow passage of an optical fiber having a diffuser at its distal end. The fiber was positioned such that the diffusing section was centered within the light delivery balloon, thereby providing intravascular light delivery with minimal absorption by blood. Excitation was typically provided by a laser source at the proximal end of the device, which was focused on the proximal end of the fiber-optic diffuser. Typical wavelengths used were 405 nm, 407 nm, 413 nm, 436 nm, 442 nm, 458 nm, 514 nm, 532 nm, and the general range of 570-610 nm.
The surgery was performed by doing a cutdown to allow access to the right femoral artery, followed by insertion of the light delivery catheter. The catheter was then passed up through the iliac and abdominal aorta, through the aortic arch and into the left carotid artery. Once in place, the balloon was inflated to approximately 1 atmosphere using a standard angioplasty inflation device. This caused the balloon to expand to the diameter of the artery, while still allowing the pressure to be kept low enough to prevent significant over-stretch of the artery.
Prior to this surgery, the rats were injected with a photosensitizer drug to allow uptake of the drug into the target tissues. […] Induction of acellularity is believed to inhibit intimal hyperplasia, the most common cause of restenosis in post-angioplasty patients.
FIG. 1 is a low magnification image of a tissue cross section taken from the throat of a rat that has received PDT therapy using intravascular red light. […] (A bare fiber diffuser was used here since complete blood elimination is not necessary at this wavelength due to the relatively high penetration of light through blood at this wavelength.) The animal was sacrificed 4 days after the PDT treatment, the throat section was harvested, embedded and stained using hematoxylin and eosin (H&E). […] A balloon was placed around the fiber light diffuser here since it is important to eliminate blood at these wavelengths due to the optical absorption of hemoglobin. […] The animal was sacrificed 5 days after the PDT treatment, the throat section was harvested, embedded and stained using hematoxylin and eosin (H&E). […] In fact, it is widely believed that viable smooth muscle cells in the media and adventia are the source of the proliferating cells that are responsible for restenosis.
In FIG. 9, the results are listed in the columns titled Max. Accell., listing the acellularity measured in the section for which the acellularity was highest and Sur. Tissue Damage, listing the degree of surrounding tissue damage. […] The desired objective was to achieve significant acellularity with minimal damage to surrounding tissue.

coronary artery = experiment: Intravascular PDT treatment of swine coronary artery, heart harvested after treatment; assay type: in vivo
[1] = Uptake of the drug within the target tissues by fluorescence microscopy and HPLC; assay type: in vivo; settings: rat, systemic administration
Experimental: Prior to this surgery, the rats were injected with a photosensitizer drug to allow uptake of the drug into the target tissues. Uptake of the drug within the target tissues was confirmed by fluorescence microscopy and high pressure liquid chromatography (HPLC). […] Induction of acellularity is believed to inhibit intimal hyperplasia, the most common cause of restenosis in post-angioplasty patients. […] To our knowledge, such efficacy using intravascular light has never been achieved previously with PDT. […] This was notable since the target tissues appeared to contain a higher drug concentration and they were also located closest to the light source.

[2] = Optical absorption spectrum of MV6401; assay type: physicochemical; settings: near 458 nm and 532 nm (FIG. 8)
[3] = rat carotid, intravascular light at wavelengths within the disclosed 390-610 nm range
[4] = intravascular red light, high PDT doses
[5] = rat carotid, approximately 4 hours after drug injection (FIG. 14)
[6] = rat carotid, approximately 2 hours after drug injection (FIG. 15)

Absorption (molar extinction coefficient) [2]: > 1000 L cm^−1 M^−1
Compound: C=Cc1c(C)c2[n]3c1=CC1=NC(=Cc4c(C)c5c([n]4[In]3[Cl])C(=C3N=C(C=2)[C@@H](C)[C@@H]3CCC(=O)OC)CC5=O)C(CC)=C1C [MV6401]
Clinical evidence of adverse PDT treatment effect (rat carotid artery; [3]): no clinical evidence of an adverse PDT treatment effect
Acellularity in the medial wall (rat carotid artery; [3]): acellularity was induced within the medial wall; also recorded: acellularity was induced in the medial wall
PDT effect / damage in surrounding tissue (rat carotid artery; [3]): very minimal PDT effect in the surrounding tissue; also recorded: largely sparing the surrounding tissue
PDT treatment effect in the target tissue (histology) (rat carotid artery; rat carotid, intravascular red/infrared light): little or no PDT treatment effects in the target tissue
Clinical symptoms (rat carotid artery; rat, 2 μmol/kg systemic, 458 nm, 100 J/cm^2, light 4 hours post drug (FIG. 3)): no adverse clinical symptoms
Acellularity in the vessel wall (rat carotid artery; rat, 2 μmol/kg systemic, 458 nm, 100 J/cm^2, light 4 hours post drug (FIG. 4)): complete acellularity was induced in the vessel wall
Surrounding tissue damage (inflammation and necrosis, H&E) (rat carotid artery; rat, 2 μmol/kg systemic, 458 nm, 100 J/cm^2, light 4 hours post drug, balloon device, sacrificed 5 days after PDT (FIG. 3)): minimal PDT-induced inflammation and necrosis
Acellularity within the vessel media and adventia (coronary artery; blue (458 nm) or green (532 nm) intravascular light, surrounding tissue damage of the order of FIG. 6 and 7): complete acellularity can be achieved within the vessel media and adventia
PDT-induced damage to myocardium / surrounding tissue (coronary artery; intravascular blue light (458 nm) (FIG. 6)): minimal damage to the myocardium
PDT-induced damage to myocardium / surrounding tissue (coronary artery; intravascular green light (532 nm) (FIG. 7)): minimal damage to the myocardium
Acellularity in media or adventia of the vessel (coronary artery; [4]): insignificant acellularity was induced in the media or adventia of the vessel
Clinical reactions (coronary artery; [4]): severe adverse clinical reactions
Localization / uptake of photosensitizer in target tissue versus surrounding tissue [1]: more strongly localized in the target tissue; also recorded: taken up preferentially in the target vessel tissue

Compound: CC(=O)[O-].CC(=O)[O-].CCc1c(CC)c2cc3nc(cnc4cc(OCCOCCOCCOC)c(OCCOCCOCCOC)cc4ncc4nc(cc1[n-]2)C(CCCO)=C4C)C(C)=C3CCCO.O.[Lu+3] [LuTex, lutetium texaphyrin]
Adverse symptoms in animals (rat carotid artery; [5]): no animals displayed adverse symptoms
PDT-induced damage in surrounding tissue (histology) (rat carotid artery; [5]): minimal evidence of PDT-induced damage in surrounding tissue
Acellularity within the media (H&E) (rat carotid artery; rat carotid, approximately 4 hours after drug injection, 3 days after PDT (FIG. 14)): nearly complete acellularity within the media
Acellularity in the medial wall (rat carotid artery; [3]): acellularity was induced in the medial wall
PDT effect / damage in surrounding tissue (rat carotid artery; [3]): largely sparing the surrounding tissue

Compound: benzoporphyrin derivative [BPD]
Adverse symptoms in animals (rat carotid artery; [6]): no animals displayed adverse symptoms
PDT-induced damage in surrounding tissue (histology) (rat carotid artery; [6]): minimal evidence of PDT-induced damage in surrounding tissue
Acellularity within the media (H&E) (rat carotid artery; rat carotid, approximately 2 hours after drug injection, 3 days after PDT (FIG. 15)): nearly complete acellularity within the media
Acellularity in the medial wall (rat carotid artery; [3]): acellularity was induced in the medial wall
PDT effect / damage in surrounding tissue (rat carotid artery; [3]): largely sparing the surrounding tissue

Compound: O=C([O-])c1c(Cl)c(Cl)c(Cl)c(Cl)c1-c1c2cc(I)c(=O)c(I)c-2oc2c(I)c([O-])c(I)cc12.[Na+].[Na+] [Rose Bengal]
Acellularity in the medial wall (rat carotid artery; [3]): acellularity was induced in the medial wall
PDT effect / damage in surrounding tissue (rat carotid artery; [3]): largely sparing the surrounding tissue

Reference: US6887862B2, “Method for improving treatment selectivity and efficacy using intravascular photodynamic therapy” (Miravant Systems, Inc., priority 2001, dated 2005)
